The nature of series [1]: Human Plasma Protein Binding (Test B). In kind it is in vitro ADME. Particulars: fraction unbound (fu). In short, it runs like this:
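Values given as % free (fu) in human plasma, using the method of Wernevik et al. (2020). For compounds tested more than once, the arithmetic mean is given.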

The nature of series [2]: Human Liver Microsomal Stability (Test C). Particulars: human, liver microsomes. In kind it is in vitro ADME. In short, it runs like this: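 CLint (μl/min/mg protein) derived from compound depletion in human liver microsomes following a published standardized early-DMPK protocol; replicate determinations given as arithmetic mean.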
(Microsomes from liver hold many membrane-bound enzymes, among them those of drug oxidation.)

Series [3] in a line: Human Hepatocyte Stability (Test D). The note with it: human, cryopreserved pooled human hepatocytes (LiverPool 10-Donor), geometric mean if run multiple times. In kind it is in vitro ADME. The protocol:
Human Hepatocyte Stability (Test D)
The metabolic stability of compounds in human hepatocytes was assessed using the following protocol:
1. Prepare 10 mM stock solutions of compound and control compounds in appropriate solvent (DMSO). Place incubation medium (L-15 Medium) in a 37° C. water bath, and allow warming for at least 15 minutes prior to use.
2. Add 80 μL of acetonitrile to each well of the 96-well deep well plate (“Quenching plate”).
3. In a new 96-well plate, dilute the 10 mM test compounds and the control compounds to 100 μM by combining 198 μL of acetonitrile and 2 μL of 10 mM stock solution.
4. Remove a vial of cryopreserved (less than −150° C.) human hepatocytes (LiverPool™ 10-Donor Human hepatocytes obtained from Bioreclamation IVT (Product No. S01205)) from storage, ensuring that vials remain at cryogenic temperatures until thawing process ensues. As quickly as possible, thaw the cells by placing the vial in a 37° C. water bath and gently shaking the vials. Vials should remain in water bath until all ice crystals have dissolved and are no longer visible. After thawing is complete, spray vial with 70% ethanol, transfer the vial to a bio-safety cabinet.
5. Open the vial and pour the contents into the 50 mL conical tube containing thawing medium. Place the 50 mL conical tube into a centrifuge and spin at 100 g for 10 minutes (room temperature).
6. Using Cellometer® Vision, count cells and determine the viable cell density. Cells with poor viability (<80% viability) are not acceptable for use.
7. Transfer 247.5 μL of hepatocytes into each well of a 96-well cell incubation plate. Place the plate on Eppendorf Thermomixer Comfort plate shaker to allow the hepatocytes to warm for 10 minutes.
8. Add 2.5 μL of 100 μM test compound or control compounds into an incubation well containing cells to initiate the reaction.
9. Incubate the plate at 37° C. and 900 rpm on an Eppendorf Thermomixer Comfort plate shaker.
10. Centrifuge the quenching plates for 20 minutes at 4,000 rpm. Transfer 30 μL of supernatant of each compound into a 96-well analysis plate. 4 compounds are pooled together into one cassette. Then dilute the pooled sample by adding of 180 μl of pure water. All incubations are performed in singlicate.
All calculations were carried out using Microsoft Excel. Peak areas were determined from extracted ion chromatograms. In vitro intrinsic clearance (in vitro Clint, in μL/min/10^6 cells) of parent compound was determined by regression analysis of the Ln percent parent disappearance vs. time curve. The in vitro intrinsic clearance (in vitro Clint, in μL/min/10^6 cells) reported in Table 36, and was determined from the slope value using the following equation: in vitro Clint=kV/N
V=incubation volume (0.25 mL);
N=number of hepatocytes per well (0.25×10^6 cells)
Where the assay was run multiple times for the same compound, the geometric mean is reported.

Series [4] can be described thus: Rat Hepatocyte Stability (Test E). In kind it is in vitro ADME. Particulars: rat, hepatocytes, geometric mean if run multiple times. In short, it runs like this: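 Intrinsic clearance in rat hepatocytes, expressed as μl/min/10^6 cells, following the literature integrated DMPK panel method. Repeat determinations combined as geometric mean.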
Another series can be described thus: Solubility (Test F). In kind it is physicochemical. The note with it: arithmetic mean if run multiple times. The protocol:
The assay was conducted according to the Solubility Assay described in pages 164-167 of Wernevik, J. et al., “A Fully Integrated Assay Panel for Early Drug Metabolism and Pharmacokinetics Profiling”, Assay and Drug Development Technologies, 2020, 18(4), 157-179. Data are reported in Table 36 as solubility ([…]. Where the assay was run multiple times for the same compound, the arithmetic mean is reported.

For the next series, the target named is T1, human RXFP1 (Homo sapiens, UniProt Q9HBX9).
T1 sequence (Q9HBX9 1-757): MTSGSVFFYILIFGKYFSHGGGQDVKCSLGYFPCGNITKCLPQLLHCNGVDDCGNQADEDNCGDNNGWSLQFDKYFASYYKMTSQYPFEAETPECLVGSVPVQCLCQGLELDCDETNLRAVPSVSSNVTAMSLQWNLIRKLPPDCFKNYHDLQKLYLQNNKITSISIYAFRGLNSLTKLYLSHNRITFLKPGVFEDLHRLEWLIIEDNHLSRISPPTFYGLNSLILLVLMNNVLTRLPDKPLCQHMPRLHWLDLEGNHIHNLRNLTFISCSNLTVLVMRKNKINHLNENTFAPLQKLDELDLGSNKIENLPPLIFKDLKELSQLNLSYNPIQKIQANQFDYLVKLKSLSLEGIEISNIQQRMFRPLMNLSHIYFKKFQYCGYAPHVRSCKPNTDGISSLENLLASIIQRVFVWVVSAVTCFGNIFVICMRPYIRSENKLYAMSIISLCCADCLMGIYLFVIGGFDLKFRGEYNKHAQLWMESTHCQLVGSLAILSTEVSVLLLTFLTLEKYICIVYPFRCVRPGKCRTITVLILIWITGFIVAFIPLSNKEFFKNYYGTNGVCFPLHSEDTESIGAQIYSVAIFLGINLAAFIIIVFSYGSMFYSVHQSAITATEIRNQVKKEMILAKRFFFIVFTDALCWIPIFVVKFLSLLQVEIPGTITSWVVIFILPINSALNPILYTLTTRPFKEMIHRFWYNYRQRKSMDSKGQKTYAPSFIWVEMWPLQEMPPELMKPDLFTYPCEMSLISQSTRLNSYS
The series can be described thus: RXFP1 Hu cAMP (Test A). In kind it is cell-based. The arrangement: expressed in transfected cells; host or cells: Jump-In T-REx CHO-K1 cells (ThermoFisher), induced with 10 ng/ml doxycycline for 24 h. The note with it: RXFP1 Hu cAMP; for EC50: read-out: Test A EC50. In short, it runs like this: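 Cells: CHO-K1 stably carrying human RXFP1, expressed after 24 h 10 ng/ml doxycycline; 0.5 mM IBMX final, HTRF detection after 2 h at room temperature.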

Converted amounts (≈) assume the structure as drawn.

`COc1cc(F)c(O[C@H]2CC[C@@](C)(C(=O)O)CC2)cc1C(=O)N[C@@H]1[C@H]2CC[C@H](C2)[C@@H]1C(=O)NCC1CCC1` [Example 2, (1S,4s)-4-(5-(((1S,2R,3S,4R)-3-((cyclobutylmethyl)carbamoyl)bicyclo[2.2.1]heptan-2-yl)carbamoyl)-2-fluoro-4-methoxyphenoxy)-1-methylcyclohexane-1-carboxylic acid]: the “Test B Human Plasma Protein Binding (% free)” value in series [1] is reported as 1.9 % free. The microsomal CLint (in general, a measure of how fast metabolising enzymes remove a compound, apart from limits set by blood flow) in series [2] is 14 µL/min/mg. Besides, in series [3], the hepatocyte CLint (as a rule, the capacity of the preparation to metabolise the compound, expressed as a volume cleared per time) at 1 µM came out at 2 µL/min/1e6 cells. In addition, in series [4], the hepatocyte CLint worked out at 27 µL/min/1e6 cells. Also, in the series “Solubility (Test F)”, the solubility (as a rule, the concentration that dissolves in the medium under given conditions) was > 1000 µM.

For `COc1cc(F)c(O[C@H]2CC[C@@](C)(C(=O)O)CC2)cc1C(=O)N[C@@H]1[C@H]2CC[C@H](C2)[C@@H]1C(=O)NCC(C)C` [Example 34, (1S,4s)-4-(2-Fluoro-5-(((1S,2R,3S,4R)-3-(isobutylcarbamoyl)bicyclo[2.2.1]heptan-2-yl)carbamoyl)-4-methoxyphenoxy)-1-methylcyclohexane-1-carboxylic acid], the “Test B Human Plasma Protein Binding (% free)” value in series [1] amounted to 4.8 % free. In series [2], this compound had an intrinsic clearance (microsomal CLint) of 5.7 µL/min/mg. Further, the hepatocyte CLint at 1 µM in series [3] is < 1 µL/min/1e6 cells. The compound further showed a hepatocyte CLint in series [4] of 19 µL/min/1e6 cells. In the series “Solubility (Test F)”, this compound returned a solubility of 880 µM (≈ 456 µg/mL).

Turning to `COc1cc(F)c(-c2ccc(C(=O)O)c(O)c2)cc1C(=O)N[C@@H]1[C@H]2CC[C@H](C2)[C@@H]1C(=O)Nc1cccc(S(=O)(=O)C(F)(F)F)c1` [Example 247], the microsomal CLint in series [2] came to 14 µL/min/mg. In series [3], this compound came in with a hepatocyte CLint at 1 µM of 9.5 µL/min/1e6 cells. The compound also returned a hepatocyte CLint in series [4] of 12 µL/min/1e6 cells. For the same compound, the solubility in “Solubility (Test F)” stood at 190 µM (≈ 124 µg/mL). In addition, at human RXFP1, the “Test A Sinf” value is on record as 104% and the EC50 (as a rule, the concentration at which the effect is half-maximal) was 50 nM.

As to `COc1cc(F)c(-c2ccc(CCC(N)(CO)CO)c(F)c2)cc1C(=O)N[C@@H]1[C@H]2CC[C@H](C2)[C@@H]1C(=O)Nc1cccc(S(=O)(=O)C(F)(F)F)c1` [Example 266, (1R,2S,3R,4S)-3-(4′-(3-Amino-4-hydroxy-3-(hydroxymethyl)butyl)-3′,6-difluoro-4-methoxy-[1,1′-biphenyl]-3-carboxamido)-N-(3-((trifluoromethyl)sulfonyl)phenyl)bicyclo[2.2.1]heptane-2-carboxamide], in series [1], the “Test B Human Plasma Protein Binding (% free)” value is reported as <0.34 % free. Moreover, in series [2], the microsomal CLint was 68 µL/min/mg. The compound also yielded a hepatocyte CLint at 1 µM in series [3] of 9.4 µL/min/1e6 cells. In addition, the hepatocyte CLint in series [4] amounted to 8.8 µL/min/1e6 cells. Also, at human RXFP1, the “Test A Sinf” value is 103% and the EC50 was 110 nM.

As for `COc1cc(F)c(-c2ccc(-c3nn[nH]n3)cc2)cc1C(=O)N[C@@H]1[C@H]2CC[C@H](C2)[C@@H]1C(=O)Nc1cccc(S(=O)(=O)C(F)(F)F)c1` [Example 325, (1R,2S,3R,4S)-3-(6-Fluoro-4-methoxy-4′-(1H-tetrazol-5-yl)-[1,1′-biphenyl]-3-carboxamido)-N-(3-((trifluoromethyl)sulfonyl)phenyl)bicyclo[2.2.1]heptane-2-carboxamide], in series [1], the “Test B Human Plasma Protein Binding (% free)” value was <0.30 % free. In series [2], the microsomal CLint was found to be 18 µL/min/mg. The same compound showed a hepatocyte CLint at 1 µM in series [3] of 5 µL/min/1e6 cells. In addition, the solubility in “Solubility (Test F)” is 880 µM (≈ 580 µg/mL). In addition, at human RXFP1, the “Test A Sinf” value is reported as 109% and the EC50 came out at 120 nM.

Take `COc1cc(F)c(-c2ccc(C(=O)O)cc2)cc1C(=O)Nc1ccccc1C(=O)Nc1cccc(S(=O)(=O)C(F)(F)F)c1` [Example 328, 2′-Fluoro-4′-methoxy-5′-((2-((3-((trifluoromethyl)sulfonyl)phenyl)carbamoyl)phenyl)carbamoyl)-[1,1′-biphenyl]-4-carboxylic acid]: the “Test B Human Plasma Protein Binding (% free)” value in series [1] is recorded as <0.10 % free. The microsomal CLint in series [2] was < 3 µL/min/mg. This compound also displayed a hepatocyte CLint at 1 µM in series [3] of 11 µL/min/1e6 cells. Further, on human RXFP1, the “Test A Sinf” value turned out to be 117% and the EC50 amounted to 190 nM.

`COc1cc(F)c(O[C@H]2CC[C@@](C)(C(=O)O)CC2)cc1C(=O)N[C@@H]1CCC[C@@H]1C(=O)Nc1cccc(S(=O)(=O)C(F)(F)F)c1` [Example 351] registered a microsomal CLint in series [2] of 64 µL/min/mg. Also, in series [3], the hepatocyte CLint at 1 µM was determined as 15 µL/min/1e6 cells. This compound also showed a hepatocyte CLint in series [4] of 46 µL/min/1e6 cells. This compound also displayed a solubility in “Solubility (Test F)” of 590 µM (≈ 380 µg/mL). At human RXFP1, the “Test A Sinf” value came to 109% and the EC50 was determined as 18 nM.

`COc1cc(F)c(O[C@H]2CC[C@@](C)(C(=O)O)CC2)cc1C(=O)N[C@@H]1CCC[C@@H]1C(=O)Nc1ccc(F)c(S(F)(F)(F)(F)F)c1` [Example 352]: in series [1], the “Test B Human Plasma Protein Binding (% free)” value is 0.26 % free. In series [3], the hepatocyte CLint at 1 µM is 13 µL/min/1e6 cells. In series [4], this compound gave a hepatocyte CLint of 38 µL/min/1e6 cells. In the series “Solubility (Test F)”, the concentration in solution (solubility) came to 340 µM (≈ 223 µg/mL). For the same compound, at human RXFP1, the “Test A Sinf” value was determined as 105% and the EC50 is 3 nM.

In the case of `COc1cc(F)c(O[C@H]2CC[C@@H](C(=O)O)CC2)cc1C(=O)N[C@@H]1[C@@H]2C[C@@H]([C@H]3OCO[C@@H]23)[C@@H]1C(=O)Nc1cccc(S(=O)(=O)C(F)(F)F)c1` [Example 461, (1S,4s)-4-(2-Fluoro-4-methoxy-5-(((3aS,4S,5R,6S,7R,7aR)-6-((3-((trifluoromethyl)sulfonyl)phenyl)carbamoyl)hexahydro-4,7-methanobenzo[d][1,3]dioxol-5-yl)carbamoyl)phenoxy)cyclohexane-1-carboxylic acid], in series [2], the microsomal CLint was 7.5 µL/min/mg. Further, the hepatocyte CLint at 1 µM in series [3] stood at 2.9 µL/min/1e6 cells. In series [4], the hepatocyte CLint was found to be 7.4 µL/min/1e6 cells. This compound returned a solubility in “Solubility (Test F)” of 980 µM (≈ 687 µg/mL). Besides, at human RXFP1, the “Test A Sinf” value stood at 100% and the EC50 came to 190 nM.
